The values that follow come from US20080207522A1, “Antimicrobial Peptides” (priority 2004, published 2008).

Data set [1] relates to Pseudomonas aeruginosa PAO1 strain H103. On the procedure: (§1) Minimal inhibitory concentration (MIC) determination. The MICs of the peptides were measured using a modified broth microdilution method in Mueller Hinton (MH) medium. Wu et al., J. Biol. Chem. 274: 29-35, 1999. Briefly, the peptides were dissolved and stored in glass vials. The assay was performed in sterile 96-well polypropylene microtitre plates were used. Serial dilutions of the peptides to be assayed were performed in 0.01% acetic acid (Fisher) containing 0.2% bovine serum albumin (Boehringer Mannheim GmbH) at 10× the desired final concentration. Ten microlitres of the 10× peptides were added to each well of a 96-well polypropylene plate containing 90 μl of MH media per well. Bacteria were added to the plate from an overnight culture at 2-7×10^5 colony forming units/ml and incubated over night at 37° C. The MIC was taken as the concentration at which no growth was observed.
(§2) Strains. For the killing assay a mini-Tn5-lux mutant in Pseudomonas aeruginosa H103 was used. The strain is called H1001 and contains a fliC::luxCDABE transcriptional fusion resulting in constitutive expression of luciferase. The bacterial strains used for the antimicrobial activity assays included Escherichia coli UB1005 (F-, nalA37, metB1), a wild-type Salmonella enterica ssp. Typhimurium (S. Typhimurium), wild-type Pseudomonas aeruginosa PAO1 strain H103, Enterococcus faecalis ATCC29212, Staphylococcus aureus ATCC25923, and a clinical isolate of Staphylococcus epidermidis obtained from Dr. D. Speert (Department of Medicine, University of British Columbia). Antifungal activity was tested using a lab isolate of Candida albicans obtained from Dr. B. Dill (Department of Microbiology and Immunology, University of British Columbia).
(§3) In addition, the parent peptide Bac2A was included in these studies as a standard. The minimal inhibitory concentrations (MIC) were determined for the important medical pathogens Pseudomonas aeruginosa, Escherichia coli, Salmonella typhimurium, Staphylococcus aureus, Staphylococcus epidermidis, Enterococcus faecaelis, and the yeast Candida albicans in Mueller-Hinton media.

The test system of data set [2] is Enterococcus faecalis ATCC29212. How it is done:
as §1, §2, §3

The subject of data set [3] is Staphylococcus epidermidis. How it is done:
as §1, §2, §3

In another data set the test system is Escherichia coli UB1005. How it is done: as §1, §2, §3
Another data set deals with Candida albicans. On the procedure:
as §1, §2, §3

In data set [4] the test system is Salmonella enterica ssp. Typhimurium. How it is done: as §1, §2, §3
In data set [5] the test system is Staphylococcus aureus ATCC25923. How it is done: as §1, §2, §3
Data set [6] deals with Pseudomonas aeruginosa strain H1001 fliC::luxCDABE. As to the kind of experiment: Luminescence-based assay for the non-cleaved (bound) peptides on cellulose membranes. The format is cell-based. The method in brief: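 Peptides remained bound to cellulose spots, which were ethanol-washed and equilibrated in 100 mM Tris pH 7.3. Constitutively lux-expressing P. aeruginosa (OD600 0.35 culture diluted 1:25) added in 10 mM Tris-HCl pH 7.3, 20 mM glucose at 37° C. Luminescence (RLU) followed over 14 time points; peptides binned into six activity classes.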

The test system of data set [7] is Pseudomonas aeruginosa strain H1001. As to the kind of experiment: Assay for the cleaved (free, soluble) peptides from cellulose support, luminescence killing assay. The format is cell-based. Also on record: key: 1: Peptides showing stronger killing than Bac2A at a 4 to 8-fold higher dilution; Peptides showing stronger killing compared to that of Bac2A at a 4-fold higher dilution; 3: Peptides similar to Bac2A; 4: Peptides similar to Bac2A at the highest concentration but demonstrating weaker killing at a 2-fold dilution; 5: Peptides giving very weak or no killing at a 2-fold dilution; 6: Peptides with weak killing activity at the highest concentration. The method in brief: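 Cellulose-synthesized peptides (amidated C-terminus, two β-alanines) cleaved by ammonia, released from punched spots 30 min at 37 °C, then serially diluted. P. aeruginosa H1001 (constitutive fliC::luxCDABE) overnight culture diluted 1:500 in LB or 100 mM Tris pH 7.3/20 mM glucose. Killing followed as time-dependent luminescence loss at 37 °C.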

Data set [8] relates to Staphylococcus aureus cells. The experiment in a line: Membrane depolarization with membrane potential-sensitive dye diSC35. Particulars: 20 μg/ml of peptides, diSC35 release, FIG. 4. It is filed as cell-based. How it is done: FIG. 4 is a graphical representation showing the mechanism of action of peptides assessed by measuring the ability to depolarize Staphylococcus aureus cells using the membrane potential-sensitive dye diSC35. Either 20 μg/ml of peptides or, as a control, 29 μg/ml of gramicidin S (Gram S) were added. Lines are smoothed using a polynomial (to the 6th power) function.

Data set [9] relates to THP-1 macrophage-like cells. The following applies: at 100 μg/ml.
Description: THP1 cells were cultured in RPMI 1640 medium (supplemented with 10% (v/v) FCS, 1% L-glutamine, and 1 nM sodium pyruvate) in E-toxa-clean (Sigma-Aldrich, Oakville, Ontario, Canada)-washed, endotoxin-free bottle. THP1 cells were counted and 250 μl per well of 2-4×10^4 cells/ml were transferred into a 96 well tissue cultured treated polystyrene microtiterplate (Beckton Dickinson, Franklin Lakes, USA). In addition PMA was added (1.3 nM) and the cells were incubated for three days. After three days the medium were exchanged and Pseudomonas aeruginosa LPS and the peptides were added. The incubation time was four hours and the supernatant was frozen at −20° C. The cells were stained with Tryphan Blue for 2 minutes and washed with PBS two times. The viability of the cells was determined by counting the stained cells over the unstained.
Cytotoxicity was assessed using PMA-treated, human macrophage THP-1 cell line (FIG. 5).

Values joined by “and” are separate entries in the source; they are usually repeats but may differ in a detail not shown here. Identical values can stand only once. Like-named read-outs stand apart in the source and are kept apart here. Ends that are not written are not given here.

Consider “Bac109: peptide of Table 6 (substitution peptides and truncation variants of Bac2A); sequence in Table 1 (RIVVIRVAR)”, for which, in data set [1] (Table 6), the “MIC P. aerug” value is reported as “n.s”. In addition, the “MIC E. faecalis” value in [2] (Table 6) was “n.s”. For the same substance, the “MIC S. epi.” value in data set [3] (Table 6) is given as “n.s”. Also, in the data set on Escherichia coli UB1005 (Table 6), the “MIC E. coli” value is on record as “n.s”. In addition, the “MIC C. albicans” value against Candida albicans (Table 6) was “n.s”. Also, the “MIC S. Typhim.” value in [4] (Table 6) is recorded as “n.s”. For the same substance, the “MIC S. aureus” value in data set [5] (Table 6) is “n.s”.
On to “Bac112: peptide of Table 6 (substitution peptides and truncation variants of Bac2A); sequence in Table 1 (ARIVVIRV)”, for which, in [1] (Table 6), the “MIC P. aerug” value is “n.s”. In [2] (Table 6), the “MIC E. faecalis” value was “n.s”. In addition, the “MIC S. epi.” value in data set [3] (Table 6) is on record as “n.s”. Besides, the “MIC E. coli” value against Escherichia coli UB1005 (Table 6) is on record as “n.s”. The “MIC C. albicans” value in the data set on Candida albicans (Table 6) is reported as “n.s”. Moreover, in data set [4] (Table 6), the “MIC S. Typhim.” value was “n.s”. Moreover, the “MIC S. aureus” value in data set [5] (Table 6) is “n.s”.
Take “Bac118: peptide of Table 6 (substitution peptides and truncation variants of Bac2A); sequence in Table 1 (RIVVIRV)”: the “MIC P. aerug” value in [1] (Table 6) is reported as “n.s”. Also, the “MIC E. faecalis” value in [2] (Table 6) is “n.s”. Also, the “MIC S. epi.” value in data set [3] (Table 6) is given as “n.s”. The “MIC E. coli” value in the data set with Escherichia coli UB1005 (Table 6) is given as “n.s”. The “MIC C. albicans” value with Candida albicans (Table 6) is on record as “n.s”. In addition, the “MIC S. Typhim.” value in data set [4] (Table 6) is on record as “n.s”. For the same substance, in [5] (Table 6), the “MIC S. aureus” value is listed as “n.s”.
Take “Bac241: peptide of Table 6 (substitution peptides and truncation variants of Bac2A); sequence in Table 1 (RLERIVVIRVAR)”: the “MIC P. aerug” value in [1] (Table 6) is “n.s”. The “MIC E. faecalis” value in data set [2] (Table 6) is recorded as “n.s”. In data set [3] (Table 6), the “MIC S. epi.” value is on record as “n.s”. In addition, the “MIC E. coli” value against Escherichia coli UB1005 (Table 6) was “n.s”. Further, the “MIC C. albicans” value in the data set with Candida albicans (Table 6) was “n.s”. Further, the “MIC S. Typhim.” value in data set [4] (Table 6) is “n.s”. For the same substance, in data set [5] (Table 6), the “MIC S. aureus” value was “n.s”.
For “Bac263: peptide of Table 6 (substitution peptides and truncation variants of Bac2A); sequence in Table 1 (RLAGIVVIRVAR)”, the “MIC P. aerug” value in data set [1] (Table 6) is recorded as “n.s”. Moreover, the “MIC E. faecalis” value in data set [2] (Table 6) was “n.s”. The “MIC S. epi.” value in [3] (Table 6) is reported as “n.s”. For the same substance, the “MIC E. coli” value with Escherichia coli UB1005 (Table 6) is listed as “n.s”. Moreover, in the data set on Candida albicans (Table 6), the “MIC C. albicans” value is recorded as “n.s”. For the same substance, in [4] (Table 6), the “MIC S. Typhim.” value is “n.s”. Further, in data set [5] (Table 6), the “MIC S. aureus” value is “n.s”.
Consider “Bac297: peptide of Table 6 (substitution peptides and truncation variants of Bac2A); sequence in Table 1 (RLARICVIRVAR)”, for which the “MIC P. aerug” value in data set [1] (Table 6) was “n.s”. The “MIC E. faecalis” value in data set [2] (Table 6) is “n.s”. Further, in [3] (Table 6), the “MIC S. epi.” value is “n.s”. Also, in the data set with Escherichia coli UB1005 (Table 6), the “MIC E. coli” value is given as “n.s”. Also, the “MIC C. albicans” value in the data set on Candida albicans (Table 6) is “n.s”. Besides, in data set [4] (Table 6), the “MIC S. Typhim.” value is on record as “n.s”. For the same substance, the “MIC S. aureus” value in [5] (Table 6) is on record as “n.s”.
Take “RLARIVVIRVAR-NH2 [Bac2A, reference compound]”: the “difference in MIC between high and low Mg2+ conditions” value in data set [1] (P. aeruginosa, Table 5) is recorded as 4 fold. Also, in data set [1] (PAO1), the “MIC P. aerug” value was determined as 50 µg/mL, the MIC P. aeruginosa amounted to 50 µg/mL, the “MIC P. aeruginosa Muller Hinton Media” value turned out to be 54 µg/mL and the “MIC P. aeruginosa With 10 μM Mg” value came to 18 µg/mL. Further, the “MIC P. aeruginosa With 2 mM Mg” value in data set [1] (PAO1) came out at 73 µg/mL. Also, in [3], the “MIC S. epi.” value was 4 µg/mL and the MIC S. epidermidis turned out to be 4 µg/mL. In the data set with Escherichia coli UB1005 (Table 4a, Mueller-Hinton media, average of three measurements), this substance had an MIC E. coli of 17 µg/mL. For the same substance, the “MIC E. coli” value in the data set on Escherichia coli UB1005 (Table 6) was 17 µg/mL. In data set [4] (ssp. Typhimurium), the “MIC S. Typhim.” value came to 34 µg/mL and the MIC S. typhimurium came to 34 µg/mL. The “Luminescence at the given time in minutes: 0” value in data set [6] (cellulose-bound peptide, 0 min, listed as Bac001) was 4374 RLU and 4041 RLU and 4234 RLU and 4425 RLU and 4530 RLU. The “Luminescence at the given time in minutes: 20” value in data set [6] (cellulose-bound peptide, 20 min, listed as Bac001) is 6729 RLU and 6352 RLU and 6373 RLU and 6323 RLU and 6411 RLU. Also, the “Luminescence at the given time in minutes: 40” value in [6] (cellulose-bound peptide, 40 min, listed as Bac001) is 2607 RLU and 2249 RLU and 1840 RLU and 2721 RLU. Also, the “Luminescence at the given time in minutes: 100” value in [6] (cellulose-bound peptide, 100 min, listed as Bac001) is 48 RLU and 35 RLU and 50 RLU and 53 RLU and 57 RLU. For the same substance, the “Activity Class bound” value in data set [6] (uncleaved cellulose-bound peptides) was 3 (Peptides similar to Bac2A resulting in lux values of less than 500 after 240 min.). For the same substance, the “inhibition of light production (killing) over 10 consecutive cycles” value in data set [6] (uncleaved peptide spots re-used 10 times, 40 h exposure to bacteria per cycle) is given as “very similar inhibition of light production (killing) was observed”. The “Soluble Class” value in data set [7] (Table 5, free peptides) is on record as 3. Further, the “Activity Class Soluble” value in data set [7] (free (cleaved) peptides, killing relative to Bac2A) stood at 3. In addition, the “ability to depolarize the membrane of S. aureus” value in data set [8] is reported as “able to depolarize the membrane of S. aureus very quickly”.
On to “RRAAVVLIVIRR-NH2 (C-terminus assumed) [Bac020]”, for which the “cytotoxic effect against a human macrophage cell line” value in data set [9] is “no cytotoxic effect”. For the same substance, in data set [1] (PAO1), the MIC P. aeruginosa worked out at 7 µg/mL, the “MIC P. aeruginosa Muller Hinton Media” value was 7 µg/mL, the “MIC P. aeruginosa With 10 μM Mg” value is 2 µg/mL and the “MIC P. aeruginosa With 2 mM Mg” value amounted to 8 µg/mL. In addition, the “MIC against P. aeruginosa” value in data set [1] (PAO1) was 7 µg/mL. The same substance yielded an MIC E. faecalis in [2] (ATCC29212) of 8 µg/mL. The substance also gave an MIC S. epidermidis in data set [3] of 1.5 µg/mL. Moreover, the MIC C. albicans in the data set with Candida albicans turned out to be 11 µg/mL. The MIC S. typhimurium in data set [4] (ssp. Typhimurium) came to 18 µg/mL. Besides, the MIC S. aureus in data set [5] (ATCC25923) was determined as 5 µg/mL.
